# Test results published in article PMC5218480 (PLoS ONE, 2017).
# Test system: MV-4-11 cells
# Assay: Gene expression microarray analysis (Affymetrix PrimeView) and GSEA
# Format: cell-based, human
# Parameters: RFU PODN (11730768_x_at) / Fold change /veh PODN (11730768_x_at) / RFU LINC00158 (11744669_a_at) / Fold change /veh LINC00158 (11744669_a_at) / RFU DUSP10 (11751237_a_at) / Fold change /veh DUSP10 (11751237_a_at) / RFU ID3 (11757404_x_at) / Fold change /veh ID3 (11757404_x_at) / RFU PLEKHG5 (11737974_s_at) / Fold change /veh PLEKHG5 (11737974_s_at) / RFU LRRC4B (11730491_at) / Fold change /veh LRRC4B (11730491_at) / RFU GIMAP4 (11747438_a_at) / Fold change /veh GIMAP4 (11747438_a_at) / RFU KRT8 (11758183_x_at) / Fold change /veh KRT8 (11758183_x_at) / RFU CNN1 (11734310_a_at) / Fold change /veh CNN1 (11734310_a_at) / RFU VPS37D (11726825_at) / Fold change /veh VPS37D (11726825_at) / RFU C10orf10 (11716522_x_at) / Fold change /veh C10orf10 (11716522_x_at) / RFU KIR2DL2 /// KIR2DL4 /// KIR2DL5A /// KIR2DL5B /// KIR2DS1 /// KIR2DS2 /// KIR2DS3 /// KIR2DS4 /// KIR3DL3 /// KIR3DL3 /// KIR3DS1 (11738374_at) / Fold change /veh KIR2DL2 /// KIR2DL4 /// KIR2DL5A /// KIR2DL5B /// KIR2DS1 /// KIR2DS2 /// KIR2DS3 /// KIR2DS4 /// KIR3DL3 /// KIR3DL3 /// KIR3DS1 (11738374_at) / RFU C1QL1 (11718748_at) / Fold change /veh C1QL1 (11718748_at) / RFU TMPRSS4 (11747572_a_at) / Fold change /veh TMPRSS4 (11747572_a_at) / RFU HAMP (11756126_x_at) / Fold change /veh HAMP (11756126_x_at) / RFU RNFT2 (11725882_a_at) / Fold change /veh RNFT2 (11725882_a_at) / RFU NR4A2 (11747474_a_at) / Fold change /veh NR4A2 (11747474_a_at) / RFU ABCC12 (11746883_a_at) / Fold change /veh ABCC12 (11746883_a_at) / RFU TMEM136 (11760407_x_at) / Fold change /veh TMEM136 (11760407_x_at) / RFU CLDN22 /// WWC2 (11732394_at) / Fold change /veh CLDN22 /// WWC2 (11732394_at) / RFU HLA-DPB1 (11760878_x_at) / Fold change /veh HLA-DPB1 (11760878_x_at) / RFU SPINT1 (11716480_a_at) / Fold change /veh SPINT1 (11716480_a_at) / RFU GAP43 (11754022_s_at) / Fold change /veh GAP43 (11754022_s_at) / RFU A4GNT (11735810_at) / Fold change /veh A4GNT (11735810_at) / RFU PRB3 (11715151_x_at) / Fold change /veh PRB3 (11715151_x_at) / RFU TUBB4B (11761932_at) / Fold change /veh TUBB4B (11761932_at) / RFU CAPN14 (11732068_a_at) / Fold change /veh CAPN14 (11732068_a_at) / RFU TMCC2 (11721928_a_at) / Fold change /veh TMCC2 (11721928_a_at) / RFU IRGQ (11745062_a_at) / Fold change /veh IRGQ (11745062_a_at) / RFU FAM174B (11720279_a_at) / Fold change /veh FAM174B (11720279_a_at) / RFU TMPRSS4 (11748680_a_at) / Fold change /veh TMPRSS4 (11748680_a_at) / RFU FAM212B (11763350_a_at) / Fold change /veh FAM212B (11763350_a_at) / RFU PLEKHG5 (11743358_a_at) / Fold change /veh PLEKHG5 (11743358_a_at) / RFU ZSCAN30 (11745921_a_at) / Fold change /veh ZSCAN30 (11745921_a_at) / RFU CMKLR1 (11741424_a_at) / Fold change /veh CMKLR1 (11741424_a_at) / RFU LOC101060620 /// MAPK8IP1 (11723275_at) / Fold change /veh LOC101060620 /// MAPK8IP1 (11723275_at) / RFU SPTSSB (11747773_x_at) / Fold change /veh SPTSSB (11747773_x_at) / RFU PRSS12 (11739890_at) / Fold change /veh PRSS12 (11739890_at) / RFU BIN1 (11741810_x_at) / Fold change /veh BIN1 (11741810_x_at) / RFU WNT11 (11732464_a_at) / Fold change /veh WNT11 (11732464_a_at) / RFU C10orf10 (11716521_a_at) / Fold change /veh C10orf10 (11716521_a_at) / RFU C5orf56 (11738089_at) / Fold change /veh C5orf56 (11738089_at) / RFU CYB561 (11721691_x_at) / Fold change /veh CYB561 (11721691_x_at) / RFU ANKRD19P (11752326_a_at) / Fold change /veh ANKRD19P (11752326_a_at) / RFU OR2T12 /// OR2T33 /// OR2T8 (11738714_s_at) / Fold change /veh OR2T12 /// OR2T33 /// OR2T8 (11738714_s_at) / RFU VCAN (11748164_a_at) / Fold change /veh VCAN (11748164_a_at) / RFU JSRP1 (11732532_at) / Fold change /veh JSRP1 (11732532_at) / RFU KRTAP10-11 (11738290_x_at) / Fold change /veh KRTAP10-11 (11738290_x_at) / RFU MYO3A (11730013_a_at) / Fold change /veh MYO3A (11730013_a_at) / RFU EBF3 (11725865_a_at) / Fold change /veh EBF3 (11725865_a_at) / RFU CAMK2N1 (11719241_x_at) / Fold change /veh CAMK2N1 (11719241_x_at) / RFU C5orf56 (11738088_a_at) / Fold change /veh C5orf56 (11738088_a_at) / RFU OLFML3 (11715873_a_at) / Fold change /veh OLFML3 (11715873_a_at) / RFU LOC100653217 /// NTM (11731650_a_at) / Fold change /veh LOC100653217 /// NTM (11731650_a_at) / RFU MAPK11 (11762145_a_at) / Fold change /veh MAPK11 (11762145_a_at) / RFU FIZ1 (11724087_x_at) / Fold change /veh FIZ1 (11724087_x_at) / RFU OASL (11726364_x_at) / Fold change /veh OASL (11726364_x_at) / RFU SOX15 (11748057_x_at) / Fold change /veh SOX15 (11748057_x_at) / RFU CD79A (11719716_a_at) / Fold change /veh CD79A (11719716_a_at) / RFU HIST1H1D (11736915_at) / Fold change /veh HIST1H1D (11736915_at) / RFU CASKIN2 (11723855_a_at) / Fold change /veh CASKIN2 (11723855_a_at) / RFU LOC730098 (11760151_x_at) / Fold change /veh LOC730098 (11760151_x_at) / RFU OR4N2 (11742367_at) / Fold change /veh OR4N2 (11742367_at) / RFU PRRT2 (11749266_a_at) / Fold change /veh PRRT2 (11749266_a_at) / RFU SNX32 (11753110_a_at) / Fold change /veh SNX32 (11753110_a_at) / RFU CDHR5 (11726645_a_at) / Fold change /veh CDHR5 (11726645_a_at) / RFU RCAN1 (11760418_a_at) / Fold change /veh RCAN1 (11760418_a_at) / RFU FAM167A (11723789_a_at) / Fold change /veh FAM167A (11723789_a_at) / RFU FAM26E (11764081_at) / Fold change /veh FAM26E (11764081_at) / RFU ISYNA1 (11749810_s_at) / Fold change /veh ISYNA1 (11749810_s_at) / RFU ACY1 (11761880_at) / Fold change /veh ACY1 (11761880_at) / RFU 11764098_at / Fold change /veh 11764098_at / RFU SAMD14 (11745864_x_at) / Fold change /veh SAMD14 (11745864_x_at) / RFU NPB (11741838_a_at) / Fold change /veh NPB (11741838_a_at) / RFU TMPRSS6 (11731388_a_at) / Fold change /veh TMPRSS6 (11731388_a_at) / RFU KRTAP10-2 (11738614_at) / Fold change /veh KRTAP10-2 (11738614_at) / RFU ARHGAP8 /// PRR5-ARHGAP8 (11727945_x_at) / Fold change /veh ARHGAP8 /// PRR5-ARHGAP8 (11727945_x_at) / RFU KRTAP5-7 /// NADSYN1 (11734609_at) / Fold change /veh KRTAP5-7 /// NADSYN1 (11734609_at) / RFU RASL12 (11751679_a_at) / Fold change /veh RASL12 (11751679_a_at) / RFU CDKN2B (11736163_a_at) / Fold change /veh CDKN2B (11736163_a_at) / RFU PRF1 (11729649_at) / Fold change /veh PRF1 (11729649_at) / RFU, ZNF638 /// ZNF638-IT1 / Fold change vs veh, ZNF638 /// ZNF638-IT1 / RFU, PANK3 / Fold change vs veh, PANK3 / RFU, SH3YL1 / Fold change vs veh, SH3YL1 / RFU, ZEB2 / Fold change vs veh, ZEB2 / RFU, NRIP1 / Fold change vs veh, NRIP1 / RFU, PTTG1IP / Fold change vs veh, PTTG1IP / RFU, CAPN2 / Fold change vs veh, CAPN2 / RFU, MED14 / Fold change vs veh, MED14 / RFU, SNORA58 / Fold change vs veh, SNORA58 / RFU, C1orf63 / Fold change vs veh, C1orf63 / RFU, LRRFIP1 / Fold change vs veh, LRRFIP1 / RFU, NDUFAF7 / Fold change vs veh, NDUFAF7 / RFU, SLC12A2 / Fold change vs veh, SLC12A2 / RFU, IBTK / Fold change vs veh, IBTK / RFU, ESF1 / Fold change vs veh, ESF1 / Fold change vs veh, TMEM50B / RFU, TAOK1 / Fold change vs veh, TAOK1 / RFU, ACBD3 / Fold change vs veh, ACBD3 / RFU, TMA16 / Fold change vs veh, TMA16 / RFU, RWDD3 / Fold change vs veh, RWDD3 / RFU, BCAT1 / Fold change vs veh, BCAT1 / RFU, EDEM3 / Fold change vs veh, EDEM3 / RFU, TMEM33 / Fold change vs veh, TMEM33 / RFU, WDR75 / Fold change vs veh, WDR75 / RFU, AHCTF1 / Fold change vs veh, AHCTF1 / RFU, TFRC / Fold change vs veh, TFRC / RFU, ZDHHC17 / Fold change vs veh, ZDHHC17 / RFU, NOM1 / Fold change vs veh, NOM1 / RFU, ARL8B / Fold change vs veh, ARL8B / RFU, ZBTB11 / Fold change vs veh, ZBTB11 / RFU, TAMM41 / Fold change vs veh, TAMM41 / RFU, KIAA1704 /// LOC100996395 / Fold change vs veh, KIAA1704 /// LOC100996395 / RFU, ING1 / Fold change vs veh, ING1 / RFU, TRMT61B / Fold change vs veh, TRMT61B / RFU, FUBP3 / Fold change vs veh, FUBP3 / RFU, TP53 / Fold change vs veh, TP53 / RFU, TNKS2 / Fold change vs veh, TNKS2 / RFU, ZFP14 / Fold change vs veh, ZFP14 / RFU, ACTR2 / Fold change vs veh, ACTR2 / RFU, PPP3R1 / Fold change vs veh, PPP3R1 / RFU, PIK3R1 / Fold change vs veh, PIK3R1 / RFU, HNRNPA1 / Fold change vs veh, HNRNPA1 / RFU, RNF170 / Fold change vs veh, RNF170 / RFU, ZNF28 / Fold change vs veh, ZNF28 / RFU, RNGTT / Fold change vs veh, RNGTT / RFU, OGT / Fold change vs veh, OGT / RFU, BRD1 / Fold change vs veh, BRD1 / RFU, MARS / Fold change vs veh, MARS / RFU, ZNF655 / Fold change vs veh, ZNF655 / RFU, FAHD1 / Fold change vs veh, FAHD1 / RFU, BDP1 / Fold change vs veh, BDP1 / RFU, LRRCC1 / Fold change vs veh, LRRCC1 / RFU, ARID1A / Fold change vs veh, ARID1A / RFU, ZNF146 / Fold change vs veh, ZNF146 / RFU, ZNF330 / Fold change vs veh, ZNF330 / RFU, GPN3 / Fold change vs veh, GPN3 / RFU, C9orf123 / Fold change vs veh, C9orf123 / RFU, N4BP2L2 / Fold change vs veh, N4BP2L2 / RFU, ARFIP1 / Fold change vs veh, ARFIP1 / RFU, FAM179B / Fold change vs veh, FAM179B / RFU, BCL10 / Fold change vs veh, BCL10 / RFU, UHRF1BP1L / Fold change vs veh, UHRF1BP1L / RFU, BET1 / Fold change vs veh, BET1 / RFU, CNOT2 / Fold change vs veh, CNOT2 / RFU, ZNF268 / Fold change vs veh, ZNF268 / Fold change vs veh, ZNF507 / RFU, DGCR2 / Fold change vs veh, DGCR2 / RFU, WDSUB1 / Fold change vs veh, WDSUB1 / Fold change vs veh, HSP90B1 /// MIR3652 / RFU, ADSS / Fold change vs veh, ADSS / RFU, GK / Fold change vs veh, GK / RFU, ZNF148 / Fold change vs veh, ZNF148 / RFU, TAF9 / Fold change vs veh, TAF9 / RFU, SLC1A5 / Fold change vs veh, SLC1A5 / RFU, SLMO2 / Fold change vs veh, SLMO2 / RFU, ABCC4 / Fold change vs veh, ABCC4 / RFU, LOC101060439 /// RAP1B / Fold change vs veh, LOC101060439 /// RAP1B / RFU, RFX7 / Fold change vs veh, RFX7 / RFU, GTPBP10 / Fold change vs veh, GTPBP10 / RFU, CNEP1R1 / Fold change vs veh, CNEP1R1 / RFU, BIVM-ERCC5 /// ERCC5 / Fold change vs veh, BIVM-ERCC5 /// ERCC5 / RFU, ILF3 / Fold change vs veh, ILF3 / RFU 11762660_at / Fold change /veh 11762660_at / RFU VCAN (11757783_s_at) / Fold change /veh VCAN (11757783_s_at) / RFU DDX43 (11728927_at) / Fold change /veh DDX43 (11728927_at) / RFU KRT8 (11758188_x_at) / Fold change /veh KRT8 (11758188_x_at) / RFU NKD1 (11759106_at) / Fold change /veh NKD1 (11759106_at) / RFU SRD5A1 (11742802_a_at) / Fold change /veh SRD5A1 (11742802_a_at) / RFU TPSAB1 /// TPSB2 (11721975_s_at) / Fold change /veh TPSAB1 /// TPSB2 (11721975_s_at) / RFU GSTM3 (11746129_a_at) / Fold change /veh GSTM3 (11746129_a_at) / RFU IL23R (11737362_x_at) / Fold change /veh IL23R (11737362_x_at) / RFU TMEM51 (11727254_a_at) / Fold change /veh TMEM51 (11727254_a_at) / RFU PIWIL2 (11732686_x_at) / Fold change /veh PIWIL2 (11732686_x_at) / RFU ORM1 (11744905_x_at) / Fold change /veh ORM1 (11744905_x_at) / RFU CCDC152 (11743942_at) / Fold change /veh CCDC152 (11743942_at) / RFU ECM1 (11717891_a_at) / Fold change /veh ECM1 (11717891_a_at) / RFU IL23R (11748794_a_at) / Fold change /veh IL23R (11748794_a_at) / RFU TNFAIP8L3 (11732012_x_at) / Fold change /veh TNFAIP8L3 (11732012_x_at) / RFU MBOAT4 (11741988_at) / Fold change /veh MBOAT4 (11741988_at) / RFU 11764193_at / Fold change /veh 11764193_at / RFU TMEM53 (11763286_at) / Fold change /veh TMEM53 (11763286_at) / RFU MAGEB2 (11727129_at) / Fold change /veh MAGEB2 (11727129_at) / RFU TMEM200A (11744735_a_at) / Fold change /veh TMEM200A (11744735_a_at) / RFU CCDC152 (11751479_a_at) / Fold change /veh CCDC152 (11751479_a_at) / RFU FAM211A (11726209_a_at) / Fold change /veh FAM211A (11726209_a_at) / RFU RGS16 (11746705_a_at) / Fold change /veh RGS16 (11746705_a_at) / RFU VCAN (11755009_s_at) / Fold change /veh VCAN (11755009_s_at) / RFU RHOB (11743442_s_at) / Fold change /veh RHOB (11743442_s_at) / RFU RGS16 (11720943_a_at) / Fold change /veh RGS16 (11720943_a_at) / RFU RGS16 (11720944_at) / Fold change /veh RGS16 (11720944_at) / RFU, VPS4B / Fold change vs veh, VPS4B / RFU, CREB1 / Fold change vs veh, CREB1 / RFU, DNAJC13 / Fold change vs veh, DNAJC13 / RFU, GNAQ / Fold change vs veh, GNAQ / RFU, CDK5R1 / Fold change vs veh, CDK5R1 / RFU, ZRANB3 / Fold change vs veh, ZRANB3 / RFU, CUL4A / Fold change vs veh, CUL4A / RFU, CCNY / Fold change vs veh, CCNY / RFU, UFL1 / Fold change vs veh, UFL1 / RFU, COG3 / Fold change vs veh, COG3 / RFU, DIAPH2 / Fold change vs veh, DIAPH2 / RFU, SKA2 / Fold change vs veh, SKA2 / RFU, AFF3 / Fold change vs veh, AFF3 / RFU, LMF1 / Fold change vs veh, LMF1 / RFU, IPO11 / Fold change vs veh, IPO11 / RFU, DFFB / Fold change vs veh, DFFB / RFU, FOXP1 / Fold change vs veh, FOXP1 / RFU, CARD8 / Fold change vs veh, CARD8 / RFU, STRN3 / Fold change vs veh, STRN3 / RFU, ADK / Fold change vs veh, ADK / RFU, RASSF2 / Fold change vs veh, RASSF2 / RFU, WIPF1 / Fold change vs veh, WIPF1 / RFU, LARP1B / Fold change vs veh, LARP1B / RFU, RASA1 / Fold change vs veh, RASA1 / RFU, RB1 / Fold change vs veh, RB1 / RFU, PPFIA1 / Fold change vs veh, PPFIA1 / RFU, MAT2A / Fold change vs veh, MAT2A / RFU, CCT5 / Fold change vs veh, CCT5 / RFU, WDR92 / Fold change vs veh, WDR92 / RFU, CUX1 / Fold change vs veh, CUX1 / RFU, TTC7A / Fold change vs veh, TTC7A / RFU, TMEM135 / Fold change vs veh, TMEM135 / RFU, DEPTOR / Fold change vs veh, DEPTOR / RFU, CPM / Fold change vs veh, CPM / RFU, DNAJB6 / Fold change vs veh, DNAJB6 / RFU, CACNA2D3 / Fold change vs veh, CACNA2D3 / RFU, DTX4 / Fold change vs veh, DTX4 / RFU, TFCP2 / Fold change vs veh, TFCP2 / RFU, GMCL1 /// GMCL1P1 / Fold change vs veh, GMCL1 /// GMCL1P1 / RFU, AEBP2 / Fold change vs veh, AEBP2 / RFU, SNHG1 /// SNORD22 /// SNORD25 /// SNORD26 /// SNORD27 /// SNORD28 /// SNORD29 /// SNORD31 / Fold change vs veh, SNHG1 /// SNORD22 /// SNORD25 /// SNORD26 /// SNORD27 /// SNORD28 /// SNORD29 /// SNORD31 / Fold change (Aza/veh), C12orf56 (ProbeSet 11735607_a_at) / Fold change (ACY-1035/veh), C12orf56 (ProbeSet 11735607_a_at) / Fold change (Aza/veh), FGFR1OP (ProbeSet 11751329_s_at) / Fold change (ACY-1035/veh), FGFR1OP (ProbeSet 11751329_s_at) / Fold change (Aza/veh), VPS36 (ProbeSet 11739960_a_at) / Fold change (ACY-1035/veh), VPS36 (ProbeSet 11739960_a_at) / RFU SYPL1 (11715823_x_at) / Fold change /veh SYPL1 (11715823_x_at) / RFU IGFBP7 (11715501_s_at) / Fold change /veh IGFBP7 (11715501_s_at) / RFU REEP3 (11722064_at) / Fold change /veh REEP3 (11722064_at) / RFU IGLL1 (11728026_x_at) / Fold change /veh IGLL1 (11728026_x_at): dose or concentration left out as unconfirmed
# Details: ProbeSet 11725141_a_at; LIST B
smiles,measurement,value
Nc1ncn([C@@H]2O[C@H](CO)[C@@H](O)[C@H]2O)c(=O)n1 [azacitidine],"RFU, FUBP3",470.91 RFU
